According to the supplement of paper PMC10307832:

Key:
[1] = compound: C1=CC2=C(C=C(C(=C2N=C1)O)N=NC3=CC4=C(C=C3)C=C(C=C4)S(=O)(=O)O)S(=O)(=O)O + Cc1nc(Nc2ncc(C(=O)Nc3c(C)cccc3Cl)s2)cc(N2CCN(CCO)CC2)n1 [Dasatinib] (partner 0.075 µM); experiment: relative viability (nuclei count vs DMSO), 5 days (fraction); higher = more cells survive
In short: (§1)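 A single step with final 0.05% Triton X-100, 1% formaldehyde and 1 ug/ml Hoechst fixed the cells and stained nuclei 5 days after treatment. Lung cancer cell lines in 1536-well plates had been treated by pin tool the day after seeding with one drug alone or a fixed anchor-drug dose plus five library-drug doses (not always all listed) in √10 steps, and nuclei were counted on 4× images. Relative viability is the ratio of nuclei in treated wells to nuclei in vehicle wells, taken as the median of duplicate plates.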

[2] = compound: C1=CC2=C(C=C(C(=C2N=C1)O)N=NC3=CC4=C(C=C3)C=C(C=C4)S(=O)(=O)O)S(=O)(=O)O + CCNC(=O)c1noc(-c2cc(C(C)C)c(O)cc2O)c1-c1ccc(CN2CCOCC2)cc1 [Luminespib] (partner 0.01 µM); experiment: as above
In short: as §1

| Cell Line | relative viability ([1]; first compound 0.08 µM) | relative viability ([1]; first compound 0.253 µM) | relative viability ([1]; first compound 0.8 µM) | relative viability ([1]; first compound 2.53 µM) | relative viability ([1]; first compound 8 µM) | relative viability ([2]; first compound 0.08 µM) | relative viability ([2]; first compound 0.253 µM) | relative viability ([2]; first compound 0.8 µM) | relative viability ([2]; first compound 2.53 µM) | relative viability ([2]; first compound 8 µM) |
| --- | --- | --- | --- | --- | --- | --- | --- | --- | --- | --- |
| NCI-H2342 | 0.297 | 0.307 | 0.286 | 0.308 | 0.348 | 0.67 | 0.714 | 0.625 | 0.767 | 0.73 |
| HCC-15 | 0.684 | 0.551 | 0.609 | 0.584 | 0.624 | 0.345 | 0.383 | 0.304 | 0.428 | 0.368 |
| A-427 | 0.68 | 0.634 | 0.64 | 0.775 | 0.751 | 0.891 | 0.823 | 0.851 | 1.04 | 0.727 |
| NCI-H2228 | 0.639 | 0.469 | 0.464 | 0.514 | 0.49 | 0.136 | 0.13 | 0.134 | 0.166 | 0.0984 |
| NCI-H1734 | 0.583 | 0.346 | 0.428 | 0.44 | 0.48 | 0.166 | 0.182 | 0.236 | 0.182 | 0.193 |
| PC-14 | 0.257 | 0.288 | 0.296 | 0.31 | 0.281 | 0.141 | 0.139 | 0.152 | 0.148 | 0.0819 |
| NCI-H1915 | 0.311 | 0.321 | 0.29 | 0.316 | 0.314 | 0.842 | 0.773 | 0.877 | 0.78 | 0.82 |
| NCI-H1666 | 0.866 | 0.755 | 0.793 | 0.816 | 0.741 | 1.09 | 0.912 | 1.07 | 0.978 | 0.596 |
| HCC-366 | 0.765 | 0.661 | 0.654 | 0.649 | 0.637 | – | – | – | – | – |
| SK-MES-1 | 0.43 | 0.35 | 0.353 | 0.531 | 0.477 | 0.786 | 0.818 | 0.735 | 0.662 | 0.783 |
| SW 1573 | 0.545 | 0.572 | 0.417 | 0.513 | 0.273 | 0.174 | 0.598 | 0.268 | 0.372 | 0.216 |
| NCI-H661 | 0.938 | 0.877 | 0.903 | 0.93 | 0.817 | 0.932 | 0.887 | 0.847 | 0.945 | 0.849 |
| PC-3 [JPC-3] | 1.11 | 0.98 | 1.03 | 1.05 | 1 | 0.576 | 0.708 | 0.663 | 0.729 | 0.761 |
| NCI-H1623 | 0.465 | 0.519 | 0.575 | 0.547 | 0.251 | 0.747 | 0.471 | 0.471 | 0.503 | 0.559 |
| LC-2-ad | 0.799 | 0.593 | 0.555 | 0.548 | 0.687 | 0.989 | 1.04 | 1.05 | 1.1 | 0.834 |
| CAL-12T | 0.325 | 0.361 | 0.383 | 0.518 | 0.434 | 0.466 | 0.519 | 0.616 | 0.207 | 0.335 |
| RERF-LC-KJ | 0.803 | 0.965 | 0.943 | 0.958 | 0.888 | 1.38 | 1.18 | 1.18 | 1.37 | 1.38 |

| Cell Line | relative viability ([1]; first compound 0.08 µM) | relative viability ([1]; first compound 0.253 µM) | relative viability ([1]; first compound 0.8 µM) | relative viability ([1]; first compound 2.53 µM) | relative viability ([1]; first compound 8 µM) | relative viability ([2]; first compound 0.08 µM) | relative viability ([2]; first compound 0.253 µM) | relative viability ([2]; first compound 0.8 µM) | relative viability ([2]; first compound 2.53 µM) | relative viability ([2]; first compound 8 µM) |
| --- | --- | --- | --- | --- | --- | --- | --- | --- | --- | --- |
| NCI-H1650 | 0.34 | 0.315 | 0.338 | 0.332 | 0.227 | 0.197 | 0.177 | 0.194 | 0.191 | 0.184 |
| BEN | 0.25 | 0.31 | 0.296 | 0.347 | 0.322 | 0.295 | 0.353 | 0.424 | 0.627 | 0.232 |
| EMC-BAC-2 | 0.324 | 0.401 | 0.336 | 0.36 | 0.367 | 1.25 | 1.05 | 1.2 | 1.24 | 1.13 |
| LU99A | 0.496 | 0.496 | 0.474 | 0.555 | 0.514 | 0.234 | 0.35 | 0.216 | 0.228 | 0.27 |
| ABC-1 | 0.568 | – | – | 0.713 | 0.421 | 0.609 | – | – | 0.521 | 0.623 |
| NCI-H2170 | 0.636 | 0.574 | 0.659 | 0.633 | 0.55 | 0.83 | 0.63 | 0.672 | 0.731 | 0.895 |
| NCI-H2347 | 0.317 | 0.316 | 0.333 | 0.343 | 0.247 | 0.77 | 0.523 | 0.36 | 0.824 | 0.317 |
| NCI-H1993 | 0.579 | 0.648 | 0.633 | 0.594 | 0.566 | 0.83 | 0.865 | 0.853 | 1.09 | 0.589 |
| NCI-H322M | 0.252 | 0.251 | 0.234 | 0.27 | 0.274 | 1.04 | 0.828 | 0.859 | 0.847 | 1.12 |
| NCI-H838 | 0.292 | 0.25 | 0.283 | 0.3 | 0.29 | 0.294 | 0.281 | 0.267 | 0.24 | 0.279 |
| HARA | 0.284 | 0.274 | 0.274 | 0.296 | 0.327 | 1.27 | 0.913 | 0.796 | 0.803 | 0.761 |
| NCI-H2087 | 0.962 | 0.872 | 0.715 | 0.847 | 0.884 | 0.169 | 0.191 | 0.153 | 0.231 | 0.237 |
| NCI-H1437 | 0.351 | 0.402 | 0.43 | 0.383 | 0.301 | 1.21 | 1.11 | 1.13 | 1.16 | 0.571 |
| NCI-H1792 | 0.772 | 0.669 | 0.458 | 0.84 | 0.835 | 0.481 | 0.418 | 0.58 | 0.423 | 0.331 |
| ChaGo-K-1 | 0.648 | 0.595 | 0.599 | 0.481 | 0.335 | 0.558 | 0.573 | 0.587 | 0.595 | 0.553 |
| NCI-H650 | 0.412 | 0.433 | 0.496 | 0.462 | 0.342 | 0.876 | 0.874 | 0.691 | 0.889 | 0.76 |
